For eight compounds, TGI results are on record in PubChem BioAssay (NCI).

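Interpolation was linear, between the two tested concentrations surrounding the appropriate level; five concentrations were tested over 48 hours in 96-well plates. TGI is the concentration that stops growth completely.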

Common to all, as to test: DTP human tumour cell line panel, 48 h
The test system of assay [1] is A549 NSCLC.
The test system of assay [2] is CCRF-CEM leukemia.
The test system of assay [3] is KM12 colon.
The test system of assay [4] is MOLT-4 leukemia.
Assay [5] deals with NCI-H23 lung.
For assay [6], the system named is NCI-H522 lung.
Assay [7] has as its system OVCAR-8 ovarian.
The subject of assay [8] is SF-268 CNS.
For assay [9], the system named is SK-MEL-5 melanoma.
Assay [10] concerns SK-OV-3 ovarian.
Assay [11] deals with SNB-19 CNS.
The subject of assay [12] is SW-620 colon.
The subject of assay [13] is T-47D breast.
Assay [14] relates to U251 CNS.

Regarding `CCC1OC2C(CC=C(C)C)=C3OC(C)(O)C(C)(CC)C(OC(=O)c4ccccc4)C3=C3OC(=O)C=C1C32` (configuration not stated), the TGI in [1] was more than 100 µM; in assay [2] it was more than 100 µM; in assay [3], more than 100 µM; in assay [4], more than 100 µM; in assay [5], more than 100 µM; in assay [6], 47.6 µM. Besides, the TGI in assay [7] was more than 100 µM; in assay [8], more than 100 µM; in assay [9] it was 43.7 µM; in [10], more than 100 µM; in [11], 94.6 µM; in [12], more than 100 µM. For the same compound, the TGI in assay [13] and in [14] was more than 100 µM in each case.

Regarding `O=C(CC(c1ccccc1)N1CCCCC1)c1ccccc1` (configuration not stated), the TGI in assay [1] came out at 41.3 µM; in assay [2], 4.69 µM; in assay [3], 22.6 µM; in assay [4] it was 3.92 µM; in assay [5] it was 31.6 µM; in [6] it was 28.6 µM. The TGI in [7] turned out to be 33.4 µM; in assay [8] it was 33.4 µM; in assay [9] it was 29.6 µM; in [10] it was 31.4 µM; in [11] it was 36.1 µM; in [12], 18.7 µM. Besides, the results for the TGI in assay [13] and in assay [14] were 37.6 µM and 21.9 µM, respectively.

For the compound `O=C(O)c1nc(-c2ccccn2)c(-c2ccccn2)nc1C(=O)O`, the TGI is 11.9 µM in [1]; more than 43.1 µM in assay [2]; 17.9 µM in assay [3]; more than 28.3 µM in assay [4]; 23.6 µM in assay [5]; 23.2 µM in assay [6]. The TGI in assay [7] worked out at 21.2 µM; in [8] it was 24.1 µM; in assay [9], 8.53 µM; in assay [10], 16.3 µM; in assay [11], 19.1 µM; in assay [12], 18.8 µM. Moreover, the TGI in assay [13] stood at 24.1 µM; in [14], 13.3 µM.

`COc1ccc2c(c1C)C(=O)C(O)(CC=C(C)C)O2` (configuration not stated): the TGI in [1], in [2], in [3], in assay [4], in assay [5] and in assay [6] was more than 100 µM in each case. Besides, the TGI in assay [7], in [8], in assay [9], in assay [10], in [11] and in assay [12] was more than 100 µM in each case. In addition, the TGI in assay [13] and in assay [14] was more than 100 µM throughout.

As to `COC1=C(Br)[C@H](O)[C@@]2(C=C1Br)CC(C(=O)NCCCCCN=C(N)N)=NO2`, the TGI in assay [1], in assay [2], in [3], in assay [4], in assay [5] and in assay [6] was more than 10 µM in each case. The TGI in [7], in assay [8], in assay [9], in assay [10], in assay [11] and in assay [12] was more than 10 µM throughout. In addition, the TGI in assay [13] and in [14] was more than 10 µM each time.

As to `O=c1cc(-c2ccccc2)[nH]c2cc3c(cc12)OCO3`, the TGI in [1] is more than 100 µM; in assay [2], more than 100 µM; in assay [3], more than 93.1 µM; in [4], more than 100 µM; in [5] it was more than 28.6 µM; in assay [6], 13.4 µM. Further, the TGI in assay [7] is more than 100 µM; in assay [8], more than 17.5 µM; in assay [9] it was 51.3 µM; in assay [10] it was 26 µM; in assay [11], more than 100 µM; in assay [12], more than 100 µM. Besides, the TGI in assay [13] is more than 100 µM; in [14] it was more than 82.3 µM.

With `COc1cccc(OC)c1/C=C1\OC(=O)c2cccc(OC)c21`, the concentration for total growth inhibition (TGI) in assay [1] was more than 100 µM; in [2], more than 100 µM; in [3], more than 100 µM; in assay [4], more than 100 µM; in assay [5], more than 100 µM; in assay [6] it was 12.2 µM. Moreover, the TGI in assay [7], in assay [8], in [9], in assay [10], in [11] and in [12] was more than 100 µM in each case. In addition, the TGI in [13] and in [14] was more than 100 µM each time.

For `Cc1cccc2c1Oc1cc(Cl)ccc1C2NC(=O)CCN1CCOCC1` (configuration not stated), the TGI in [1], in assay [2], in assay [3], in [4], in assay [5] and in assay [6] was more than 100 µM each time. Also, the TGI in [7], in assay [8], in [9], in [10], in [11] and in [12] was more than 100 µM throughout. Besides, the TGI in assay [13] and in assay [14] was more than 100 µM in each case.
